Data published in PubChem BioAssay AID2060494 (Molecular Pharmacology Branch, DTP, NCI, 2025).

Tested on: 435261-313-R-J1-PDC complex spheroid viability
Assay: Anticancer human tumor 435261-313-R-J1-PDC patient-derived colon adenocarcinoma cell line growth inhibition [GQUAD]
Conditions: for IC50: curve of first compound; for viability, T/C: stronger effect = lower value
How it was run: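 Tumor cells were grown as complex spheroids with HUVEC endothelial cells and mesenchymal stem cells as stroma. G-quadruplex stabilizers were combined with targeted agents over half-log dilutions from near the clinical Cmax, or from 10 microM.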

[1] = second compound 0.0316 µM, first compound 0.0316 µM
[2] = second compound 0.0316 µM, first compound 0.1 µM
[3] = second compound 0.0316 µM, first compound 0.316 µM
[4] = second compound 0.0316 µM, first compound 1 µM
[5] = second compound 0.0316 µM, first compound 3.16 µM
[6] = second compound 0.0316 µM, first compound 10 µM
[7] = second compound 0.1 µM, first compound 0.0316 µM
[8] = second compound 0.1 µM, first compound 0.1 µM
[9] = second compound 0.1 µM, first compound 0.316 µM
[10] = second compound 0.1 µM, first compound 1 µM
[11] = second compound 0.1 µM, first compound 3.16 µM
[12] = second compound 0.1 µM, first compound 10 µM
[13] = second compound 0.316 µM, first compound 0.0316 µM
[14] = second compound 0.316 µM, first compound 0.1 µM
[15] = second compound 0.316 µM, first compound 0.316 µM
[16] = second compound 0.316 µM, first compound 1 µM
[17] = second compound 0.316 µM, first compound 3.16 µM
[18] = second compound 0.316 µM, first compound 10 µM
[19] = second compound 1 µM, first compound 0.0316 µM
[20] = second compound 1 µM, first compound 0.1 µM
[21] = second compound 1 µM, first compound 0.316 µM
[22] = second compound 1 µM, first compound 1 µM
[23] = second compound 1 µM, first compound 3.16 µM
[24] = second compound 1 µM, first compound 10 µM
[25] = second compound 3.16 µM, first compound 0.0316 µM
[26] = second compound 3.16 µM, first compound 0.1 µM
[27] = second compound 3.16 µM, first compound 0.316 µM
[28] = second compound 3.16 µM, first compound 1 µM
[29] = second compound 3.16 µM, first compound 3.16 µM
[30] = second compound 3.16 µM, first compound 10 µM
[31] = second compound 10 µM, first compound 0.0316 µM
[32] = second compound 10 µM, first compound 0.1 µM
[33] = second compound 10 µM, first compound 0.316 µM
[34] = second compound 10 µM, first compound 1 µM
[35] = second compound 10 µM, first compound 3.16 µM
[36] = second compound 10 µM, first compound 10 µM
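Further: spheroids exposed to the agents for seven days before readout.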
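Wherever viability, T/C is given: percent of vehicle control viability with DMSO wells as 100%.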

Q: Which IC50 (second compound 0.0316 µM) does the source give for `CC1COCCN1c1cc(C2(S(C)(=N)=O)CC2)nc(-c2ccnc3[nH]ccc23)n1` (stereo unspecified) + Cc1cnc(CNC(=O)c2c(=O)c3ccc(N4CCCN(C)CC4)nc3n3c2sc2ccccc23)cn1 here?
A: 3840 nM

Q: And the IC50 (second compound 0.1 µM)?
A: 3200 nM

Q: What about the IC50 (second compound 0.316 µM) of the same molecule?
A: 2350 nM

Q: And the IC50 (second compound 1 µM)?
A: < 31.6 nM

Q: And the IC50 (second compound 3.16 µM)?
A: < 31.6 nM

Q: And the IC50 (second compound 10 µM)?
A: < 31.6 nM

Q: What about the viability, T/C [1] of the same molecule?
A: 52.9%

Q: And the viability, T/C [2]?
A: 57.6%

Q: And the viability, T/C [3]?
A: 66.8%

Q: What about the viability, T/C [4] of the same molecule?
A: 53.9%

Q: And the viability, T/C [5]?
A: 49.2%

Q: And the viability, T/C [6]?
A: 42.7%

Q: What about the viability, T/C [7] of the same molecule?
A: 41.4%

Q: What about the viability, T/C [8] of the same molecule?
A: 66.6%

Q: And the viability, T/C [9]?
A: 46.2%

Q: What about the viability, T/C [10] of the same molecule?
A: 45.9%

Q: What about the viability, T/C [11] of the same molecule?
A: 50.6%

Q: And the viability, T/C [12]?
A: 38.8%

Q: And the viability, T/C [13]?
A: 53.5%

Q: What about the viability, T/C [14] of the same molecule?
A: 55.8%

Q: And the viability, T/C [15]?
A: 60.6%

Q: What about the viability, T/C [16] of the same molecule?
A: 55.1%

Q: And the viability, T/C [17]?
A: 44.9%

Q: And the viability, T/C [18]?
A: 40.5%

Q: And the viability, T/C [19]?
A: 31.8%

Q: And the viability, T/C [20]?
A: 37.9%

Q: What about the viability, T/C [21] of the same molecule?
A: 35.9%

Q: And the viability, T/C [22]?
A: 41.5%

Q: And the viability, T/C [23]?
A: 31.3%

Q: What about the viability, T/C [24] of the same molecule?
A: 26%

Q: And the viability, T/C [25]?
A: 18.1%

Q: And the viability, T/C [26]?
A: 10.2%

Q: What about the viability, T/C [27] of the same molecule?
A: 21%

Q: What about the viability, T/C [28] of the same molecule?
A: 18.6%

Q: What about the viability, T/C [29] of the same molecule?
A: 17.3%

Q: What about the viability, T/C [30] of the same molecule?
A: 5.09%

Q: What about the viability, T/C [31] of the same molecule?
A: 0.26%

Q: And the viability, T/C [32]?
A: 0.15%

Q: What about the viability, T/C [33] of the same molecule?
A: 0.17%

Q: And the viability, T/C [34]?
A: 0.18%

Q: What about the viability, T/C [35] of the same molecule?
A: 0.2%

Q: And the viability, T/C [36]?
A: 0.21%

Q: For `Cn1ncnc1[C@H]1c2n[nH]c(=O)c3cc(F)cc(c23)N[C@@H]1c1ccc(F)cc1` + Cc1cnc(CNC(=O)c2c(=O)c3ccc(N4CCCN(C)CC4)nc3n3c2sc2ccccc23)cn1, which IC50 (second compound 0.0316 µM) is on record?
A: > 316 nM

Q: What about the IC50 (second compound 0.1 µM) of the same molecule?
A: > 316 nM

Q: What about the IC50 (second compound 0.316 µM) of the same molecule?
A: > 316 nM

Q: And the IC50 (second compound 1 µM)?
A: < 0.999 nM

Q: What about the IC50 (second compound 3.16 µM) of the same molecule?
A: < 0.999 nM

Q: And the IC50 (second compound 10 µM)?
A: < 0.999 nM

Q: What about the viability, T/C (second compound 0.0316 µM, first compound 0.000999 µM) of the same molecule?
A: 82.1%

Q: What about the viability, T/C (second compound 0.0316 µM, first compound 0.00316 µM) of the same molecule?
A: 60.3%

Q: What about the viability, T/C (second compound 0.0316 µM, first compound 0.00999 µM) of the same molecule?
A: 66.2%

Q: What about the viability, T/C [1] of the same molecule?
A: 60.9%

Q: And the viability, T/C (second compound 0.0316 µM, first compound 0.0999 µM)?
A: 72.1%

Q: What about the viability, T/C [3] of the same molecule?
A: 62.9%

Q: And the viability, T/C (second compound 0.1 µM, first compound 0.000999 µM)?
A: 59.5%

Q: And the viability, T/C (second compound 0.1 µM, first compound 0.00316 µM)?
A: 60.5%

Q: And the viability, T/C (second compound 0.1 µM, first compound 0.00999 µM)?
A: 47.1%

Q: What about the viability, T/C [7] of the same molecule?
A: 57%

Q: What about the viability, T/C (second compound 0.1 µM, first compound 0.0999 µM) of the same molecule?
A: 59.4%

Q: What about the viability, T/C [9] of the same molecule?
A: 62.4%

Q: What about the viability, T/C (second compound 0.316 µM, first compound 0.000999 µM) of the same molecule?
A: 58.9%

Q: And the viability, T/C (second compound 0.316 µM, first compound 0.00316 µM)?
A: 57.8%

Q: What about the viability, T/C (second compound 0.316 µM, first compound 0.00999 µM) of the same molecule?
A: 55.4%

Q: And the viability, T/C [13]?
A: 53.1%

Q: And the viability, T/C (second compound 0.316 µM, first compound 0.0999 µM)?
A: 49.6%

Q: What about the viability, T/C [15] of the same molecule?
A: 53.4%

Q: And the viability, T/C (second compound 1 µM, first compound 0.000999 µM)?
A: 42.4%

Q: What about the viability, T/C (second compound 1 µM, first compound 0.00316 µM) of the same molecule?
A: 46.8%

Q: What about the viability, T/C (second compound 1 µM, first compound 0.00999 µM) of the same molecule?
A: 59.2%

Q: What about the viability, T/C [19] of the same molecule?
A: 49.8%

Q: What about the viability, T/C (second compound 1 µM, first compound 0.0999 µM) of the same molecule?
A: 47.1%

Q: What about the viability, T/C [21] of the same molecule?
A: 46.9%

Q: And the viability, T/C (second compound 3.16 µM, first compound 0.000999 µM)?
A: 17.9%

Q: What about the viability, T/C (second compound 3.16 µM, first compound 0.00316 µM) of the same molecule?
A: 18.4%

Q: What about the viability, T/C (second compound 3.16 µM, first compound 0.00999 µM) of the same molecule?
A: 12.7%

Q: What about the viability, T/C [25] of the same molecule?
A: 23%

Q: What about the viability, T/C (second compound 3.16 µM, first compound 0.0999 µM) of the same molecule?
A: 20.4%

Q: What about the viability, T/C [27] of the same molecule?
A: 11.9%

Q: What about the viability, T/C (second compound 10 µM, first compound 0.000999 µM) of the same molecule?
A: 0.24%

Q: And the viability, T/C (second compound 10 µM, first compound 0.00316 µM)?
A: 11.3%

Q: And the viability, T/C (second compound 10 µM, first compound 0.00999 µM)?
A: 0.24%

Q: What about the viability, T/C [31] of the same molecule?
A: 0.21%

Q: What about the viability, T/C (second compound 10 µM, first compound 0.0999 µM) of the same molecule?
A: 0.18%

Q: And the viability, T/C [33]?
A: 9.04%

Q: What does the source list for `O=C(c1cc(Cc2n[nH]c(=O)c3ccccc23)ccc1F)N1CCN(C(=O)C2CC2)CC1` + Cc1cnc(CNC(=O)c2c(=O)c3ccc(N4CCCN(C)CC4)nc3n3c2sc2ccccc23)cn1?
A: IC50 (second compound 0.0316 µM): > 10000 nM; IC50 (second compound 0.1 µM): > 10000 nM; IC50 (second compound 0.316 µM): > 10000 nM; IC50 (second compound 1 µM): < 31.6 nM; IC50 (second compound 3.16 µM): < 31.6 nM; IC50 (second compound 10 µM): < 31.6 nM; viability, T/C [1]: 76%; viability, T/C [2]: 60.9%; viability, T/C [3]: 66.3%; viability, T/C [4]: 68.2%; viability, T/C [5]: 84%; viability, T/C [6]: 77.7%; viability, T/C [7]: 65.2%; viability, T/C [8]: 65.1%; viability, T/C [9]: 58.3%; viability, T/C [10]: 62%; viability, T/C [11]: 64%; viability, T/C [12]: 62.1%; viability, T/C [13]: 59.4%; viability, T/C [14]: 53.8%; viability, T/C [15]: 58.7%; viability, T/C [16]: 59.6%; viability, T/C [17]: 53%; viability, T/C [18]: 52.2%; viability, T/C [19]: 38.6%; viability, T/C [20]: 45.9%; viability, T/C [21]: 38.1%; viability, T/C [22]: 42.7%; viability, T/C [23]: 55.9%; viability, T/C [24]: 37.6%; viability, T/C [25]: 26.4%; viability, T/C [26]: 9.89%; viability, T/C [27]: 25.5%; viability, T/C [28]: 15.3%; viability, T/C [29]: 27.3%; viability, T/C [30]: 20.5%; viability, T/C [31]: 0.23%; viability, T/C [32]: 0.23%; viability, T/C [33]: 0.21%; viability, T/C [34]: 0.23%; viability, T/C [35]: 0.22%; viability, T/C [36]: 0.23%
